Test results reported in ChEMBL document CHEMBL1152720, “Discovery and SAR of para-alkylthiophenoxyacetic acids as potent and selective PPARdelta agonists” (Bioorg Med Chem Lett, 2009).

Columns and labels:
[1] = molecular target: T1, Peroxisome proliferator-activated receptor delta (Homo sapiens, UniProt Q03181); assay: Agonist activity at human PPARdelta; assay type: functional
T1 sequence (Q03181 whole entry): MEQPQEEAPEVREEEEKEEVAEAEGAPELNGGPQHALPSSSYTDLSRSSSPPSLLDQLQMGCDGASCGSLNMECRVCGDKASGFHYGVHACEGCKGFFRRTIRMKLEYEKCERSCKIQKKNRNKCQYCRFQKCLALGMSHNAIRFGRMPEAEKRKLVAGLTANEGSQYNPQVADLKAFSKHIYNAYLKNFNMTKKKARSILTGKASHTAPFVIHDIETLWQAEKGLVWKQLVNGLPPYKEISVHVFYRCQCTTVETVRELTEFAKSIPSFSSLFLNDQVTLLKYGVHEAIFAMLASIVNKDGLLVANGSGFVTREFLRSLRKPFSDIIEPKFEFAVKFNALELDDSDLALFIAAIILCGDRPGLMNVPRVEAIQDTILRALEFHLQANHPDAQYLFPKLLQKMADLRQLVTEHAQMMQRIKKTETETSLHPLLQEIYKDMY

[2] = molecular target: T2, Peroxisome proliferator-activated receptor gamma (Homo sapiens, UniProt P37231); assay: Activity at PPARgamma
T2 sequence (P37231 whole entry): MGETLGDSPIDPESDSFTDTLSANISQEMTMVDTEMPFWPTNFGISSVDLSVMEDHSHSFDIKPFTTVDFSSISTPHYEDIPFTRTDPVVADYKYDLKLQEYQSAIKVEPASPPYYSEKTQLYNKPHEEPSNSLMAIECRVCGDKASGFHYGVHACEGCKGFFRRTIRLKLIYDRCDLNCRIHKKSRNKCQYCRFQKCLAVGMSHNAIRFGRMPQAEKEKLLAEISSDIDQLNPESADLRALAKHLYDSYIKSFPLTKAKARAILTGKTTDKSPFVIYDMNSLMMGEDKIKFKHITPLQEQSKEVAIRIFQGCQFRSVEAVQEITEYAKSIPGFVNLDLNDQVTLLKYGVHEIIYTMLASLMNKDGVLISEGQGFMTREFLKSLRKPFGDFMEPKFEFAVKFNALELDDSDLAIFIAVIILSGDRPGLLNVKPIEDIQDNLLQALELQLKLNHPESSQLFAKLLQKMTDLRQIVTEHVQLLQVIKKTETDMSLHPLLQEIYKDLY

[3] = molecular target: T3, Peroxisome proliferator-activated receptor alpha (Homo sapiens, UniProt Q07869); assay: Activity at PPARalpha
T3 sequence (Q07869 whole entry): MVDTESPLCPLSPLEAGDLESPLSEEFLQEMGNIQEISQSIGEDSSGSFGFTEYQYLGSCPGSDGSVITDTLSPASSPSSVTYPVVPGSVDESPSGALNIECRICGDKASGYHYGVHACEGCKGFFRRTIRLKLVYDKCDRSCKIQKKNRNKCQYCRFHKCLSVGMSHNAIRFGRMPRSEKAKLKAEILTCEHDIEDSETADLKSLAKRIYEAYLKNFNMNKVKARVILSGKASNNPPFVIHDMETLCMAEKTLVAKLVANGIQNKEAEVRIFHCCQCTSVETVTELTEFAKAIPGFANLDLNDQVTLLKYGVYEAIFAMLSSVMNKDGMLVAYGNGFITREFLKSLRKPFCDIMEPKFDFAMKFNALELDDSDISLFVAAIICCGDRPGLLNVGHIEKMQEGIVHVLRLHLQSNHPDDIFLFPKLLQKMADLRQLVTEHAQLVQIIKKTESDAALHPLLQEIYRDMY

SMILES: CCCC(CCC)(COc1ccc(C(F)(F)F)cc1)CSc1ccc(OCC(=O)O)c(C)c1
- EC50 [1]: 0.0086 µM

SMILES: C=C(CNc1ccc(C(F)(F)F)cc1)CSc1ccc(OCC(=O)O)c(C)c1
- EC50 [1]: > 0.5 µM
- EC50 [2]: > 1 µM
- EC50 [3]: > 1 µM

SMILES: C=C(COc1ccccc1)CSc1ccc(OCC(=O)O)c(C)c1
- EC50 [2]: > 1 µM
- EC50 [3]: > 1 µM

SMILES: C=C(COc1ccc(Cl)c(Cl)c1)CSc1ccc(OCC(=O)O)c(C)c1
- EC50 [1]: 0.0498 µM
- EC50 [2]: > 1 µM
- EC50 [3]: > 1 µM

SMILES: C=C(COc1ccc(OC)cc1)CSc1ccc(OCC(=O)O)c(C)c1
- EC50 [2]: > 1 µM
- EC50 [3]: > 1 µM

SMILES: C=C(COc1ccc(N(C)C)cc1)CSc1ccc(OCC(=O)O)c(C)c1
- EC50 [2]: > 1 µM
- EC50 [3]: > 1 µM

SMILES: C=C(CCc1ccc(C(F)(F)F)cc1)CSc1ccc(OCC(=O)O)c(C)c1
- EC50 [2]: > 1 µM
- EC50 [3]: > 1 µM

SMILES: C=C(COc1ccc(C(F)(F)F)cc1)CSc1ccc(OCC(=O)O)c(Cl)c1
- EC50 [1]: 0.0467 µM
- EC50 [2]: > 1 µM
- EC50 [3]: > 1 µM

SMILES: C=C(COc1ccc(C(F)(F)F)cc1)CSc1ccc(OCC(=O)O)c(C(F)(F)F)c1
- EC50 [1]: > 1 µM
- EC50 [2]: > 1 µM
- EC50 [3]: > 1 µM

SMILES: C=C(COc1ccc(Cl)cc1Cl)CSc1ccc(OCC(=O)O)c(C)c1
- EC50 [2]: > 1 µM
- EC50 [3]: > 1 µM

SMILES: C=C(COc1ccc(C(F)(F)F)cc1)CSc1ccc(OCC(=O)O)c(C)c1
- EC50 [2]: > 1 µM
- EC50 [3]: > 1 µM

SMILES: Cc1cc(SCC(COc2ccc(C(F)(F)F)cc2)=C(F)F)ccc1OCC(=O)O
- EC50 [1]: 0.0696 µM

SMILES: C=C(COc1ccc(OC(F)(F)F)cc1)CSc1ccc(OCC(=O)O)c(C)c1
- EC50 [1]: 0.0284 µM
- EC50 [2]: > 1 µM
- EC50 [3]: > 1 µM

SMILES: C=C(COc1ccc(Cl)c(C(F)(F)F)c1)CSc1ccc(OCC(=O)O)c(C)c1
- EC50 [1]: > 0.5 µM
- EC50 [2]: > 1 µM
- EC50 [3]: > 1 µM

SMILES: C=C(COc1ccc(C(F)(F)F)cc1)CSc1ccc(OCC(=O)O)c(OC)c1
- EC50 [1]: > 1 µM
- EC50 [2]: > 1 µM
- EC50 [3]: > 1 µM

SMILES: C=C(CSc1ccc(C(F)(F)F)cc1)CSc1ccc(OCC(=O)O)c(C)c1
- EC50 [2]: > 1 µM
- EC50 [3]: > 1 µM

SMILES: C=C(COc1ccc(Cl)cc1)CSc1ccc(OCC(=O)O)c(C)c1
- EC50 [1]: 0.0655 µM
- EC50 [2]: > 1 µM
- EC50 [3]: > 1 µM

SMILES: C=C(COc1ccc(C(F)(F)F)cc1)COc1ccc(OCC(=O)O)c(C)c1
- EC50 [2]: > 1 µM
- EC50 [3]: > 1 µM

SMILES: C=C(COc1ccc(C(F)(F)F)cc1)CSc1ccc(OCC(=O)O)cc1Cl
- EC50 [1]: > 0.5 µM
- EC50 [2]: > 1 µM
- EC50 [3]: > 1 µM

SMILES: Cc1cc(SC/C(=C/C#N)COc2ccc(C(F)(F)F)cc2)ccc1OCC(=O)O
- EC50 [1]: 0.0354 µM
